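Values below derive from 48-hour exposures of cells grown in 96-well plates, with endpoints linearly interpolated between the two concentrations bracketing the appropriate inhibition level. The concentration for 50% growth inhibition is given as GI50.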 Calls of active or inactive are those of the source. Rule as the data show it: active = GI50 up to about 1.1 µM and inactive = higher.
Columns and labels:
Experiment in all cases: inhibition of tumour cell growth, NCI panel, 48 h
[1] = tested on: DU-145
[2] = tested on: SK-OV-3
[3] = tested on: SF-295
[4] = tested on: RPMI-8226
[5] = tested on: M14
[6] = tested on: SR
[7] = tested on: MDA-MB-435
[8] = tested on: UACC-62
[9] = tested on: HOP-62
[10] = tested on: IGROV-1
[11] = tested on: K562
[12] = tested on: HL-60
[13] = tested on: PC-3
[14] = tested on: NCI/ADR-RES
[15] = tested on: ACHN
[16] = tested on: SK-MEL-5
[17] = tested on: OVCAR-4
[18] = tested on: T47D
[19] = tested on: Hs-578T
[20] = tested on: 786-0
[21] = tested on: SN12C
[22] = tested on: MDA-MB-231
[23] = tested on: OVCAR-3
[24] = tested on: SNB-19
[25] = tested on: SW-620
[26] = tested on: HCT-15
[27] = tested on: NCI-H23
[28] = tested on: Malme-3M
[29] = tested on: OVCAR-8
[30] = tested on: MDA-N
[31] = tested on: HT-29
[32] = tested on: UO-31
[33] = tested on: UACC-257
[34] = tested on: NCI-H226
[35] = tested on: SF-539
[36] = tested on: SNB-75
[37] = tested on: SK-MEL-2
[38] = tested on: A549
[39] = tested on: LOX IMVI
[40] = tested on: SF-268
[41] = tested on: NCI-H460
[42] = tested on: CCRF-CEM
[43] = tested on: U-251
[44] = tested on: MCF7
[45] = tested on: TK-10
[46] = tested on: RXF 393
[47] = tested on: HOP-92
[48] = tested on: MOLT-4
[49] = tested on: OVCAR-5
[50] = tested on: EKVX
[51] = tested on: COLO 205
[52] = tested on: KM12
[53] = tested on: SK-MEL-28
[54] = tested on: A498
[55] = tested on: HCT-116
[56] = tested on: NCI-H522
[57] = tested on: CAKI-1
[58] = tested on: HCC 2998
[59] = tested on: BT-549

O=S(=O)(/N=S(/Nc1ccccc1)C(F)(F)Cl)c1ccccc1 (configuration not stated)
GI50 [1]: > 100 µM (inactive) | GI50 [2]: > 100 µM (inactive) | GI50 [3]: > 100 µM (inactive) | GI50 [4]: > 100 µM (inactive) | GI50 [5]: > 100 µM (inactive) | GI50 [6]: > 100 µM (inactive) | GI50 [7]: > 100 µM (inactive) | GI50 [8]: > 100 µM (inactive) | GI50 [9]: > 100 µM (inactive) | GI50 [10]: > 100 µM (inactive) | GI50 [11]: > 100 µM (inactive) | GI50 [12]: > 100 µM (inactive) | GI50 [13]: > 100 µM (inactive) | GI50 [14]: > 100 µM (inactive) | GI50 [15]: > 100 µM (inactive) | GI50 [16]: > 100 µM (inactive) | GI50 [17]: > 100 µM (inactive) | GI50 [18]: > 100 µM (inactive) | GI50 [19]: > 100 µM (inactive) | GI50 [20]: > 100 µM (inactive) | GI50 [21]: > 100 µM (inactive) | GI50 [22]: > 100 µM (inactive) | GI50 [23]: > 100 µM (inactive) | GI50 [24]: > 100 µM (inactive) | GI50 [25]: > 100 µM (inactive) | GI50 [26]: > 100 µM | GI50 [27]: > 100 µM (inactive) | GI50 [28]: > 100 µM (inactive) | GI50 [29]: > 100 µM (inactive) | GI50 [30]: > 100 µM (inactive) | GI50 [31]: > 100 µM (inactive) | GI50 [32]: > 100 µM (inactive) | GI50 [33]: > 100 µM (inactive) | GI50 [34]: > 100 µM (inactive) | GI50 [35]: > 100 µM (inactive) | GI50 [36]: > 100 µM (inactive) | GI50 [37]: > 100 µM (inactive) | GI50 [38]: > 100 µM (inactive) | GI50 [39]: > 100 µM (inactive) | GI50 [40]: > 100 µM (inactive) | GI50 [41]: > 100 µM (inactive) | GI50 [42]: > 100 µM (inactive) | GI50 [43]: > 100 µM (inactive) | GI50 [44]: > 100 µM (inactive) | GI50 [45]: > 100 µM (inactive) | GI50 [46]: > 100 µM (inactive) | GI50 [47]: > 100 µM (inactive) | GI50 [48]: > 100 µM (inactive) | GI50 [49]: > 100 µM (inactive) | GI50 [50]: > 100 µM (inactive) | GI50 [51]: > 100 µM (inactive) | GI50 [52]: > 100 µM (inactive) | GI50 [53]: > 100 µM (inactive) | GI50 [54]: > 100 µM (inactive) | GI50 [55]: > 100 µM (inactive)

COc1ccc(-c2cc(O)c3c(C)cc(C)nc3n2)cc1
GI50 [1]: 48.4 µM (inactive) | GI50 [2]: > 100 µM (inactive) | GI50 [56]: 38.1 µM (inactive) | GI50 [4]: 18 µM (inactive) | GI50 [5]: 35.3 µM (inactive) | GI50 [57]: 22.9 µM (inactive) | GI50 [58]: 43.2 µM (inactive) | GI50 [8]: 18.4 µM (inactive) | GI50 [9]: 26.8 µM (inactive) | GI50 [10]: 23.3 µM (inactive) | GI50 [11]: 23 µM (inactive) | GI50 [12]: 15.8 µM (inactive) | GI50 [14]: 33.4 µM (inactive) | GI50 [15]: 44.1 µM (inactive) | GI50 [17]: 26.4 µM (inactive) | GI50 [18]: 28.2 µM (inactive) | GI50 [19]: 27.7 µM (inactive) | GI50 [21]: 44.3 µM (inactive) | GI50 [22]: 17.7 µM (inactive) | GI50 [24]: 49.4 µM (inactive) | GI50 [25]: 38.9 µM (inactive) | GI50 [26]: 24.4 µM | GI50 [27]: 28.6 µM (inactive) | GI50 [28]: 29 µM (inactive) | GI50 [29]: 33.5 µM (inactive) | GI50 [31]: 20.3 µM (inactive) | GI50 [32]: 38 µM (inactive) | GI50 [33]: 25.9 µM (inactive) | GI50 [34]: 35 µM (inactive) | GI50 [35]: > 100 µM (inactive) | GI50 [37]: 43.1 µM (inactive) | GI50 [38]: 55.3 µM (inactive) | GI50 [59]: 26.4 µM (inactive) | GI50 [39]: 27.4 µM (inactive) | GI50 [40]: 53 µM (inactive) | GI50 [42]: 16.9 µM (inactive) | GI50 [44]: 15.3 µM (inactive) | GI50 [45]: 25.1 µM (inactive) | GI50 [46]: 49.7 µM (inactive) | GI50 [47]: 26.9 µM (inactive) | GI50 [48]: 16 µM (inactive) | GI50 [49]: > 100 µM (inactive) | GI50 [50]: 45.2 µM (inactive) | GI50 [51]: 20.8 µM (inactive) | GI50 [52]: 34.8 µM (inactive) | GI50 [53]: 47.9 µM (inactive) | GI50 [54]: 30.5 µM (inactive)
